This is an account of results in ChEMBL document CHEMBL1201862, “PubChem BioAssay data set” (2004).

Some test systems named below: A498; A549; COLO 205; DU-145; HCT-15; IGROV-1; KM12; MDA-MB-435; MDA-N; NCI-H522; NCI/ADR-RES; OVCAR-5; RPMI-8226; RXF 393; SF-268; SK-MEL-2; SNB-19; T47D; UACC-257; OVCAR-3.
Test in all cases: DTP human tumour cell line panel, 48 h

SMILES strings stand for the structures.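 Method: 48-hour compound exposure of cells in 96-well plates, five concentrations, linear interpolation of endpoints. GI50 = concentration required for 50% inhibition of growth.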 Activity calls are given as the source filed them. Rule as the data show it: active = GI50 up to about 1.1 µM and inactive = higher.

As to `C[C@H](CCC(=O)O)[C@H]1CC[C@H]2[C@@H]3[C@@H](O)C[C@@H]4C[C@H](O)CC[C@]4(C)[C@H]3C[C@H](O)[C@]12C`, the GI50 in the experiment on A498 was > 100 µM (inactive); in the experiment on A549, > 100 µM (inactive); with COLO 205, > 100 µM (inactive); in the experiment on DU-145, > 100 µM (inactive); in the experiment with HCT-15, more than 100 µM; in the experiment on IGROV-1, > 100 µM (inactive). For the same molecule, the GI50 with KM12, in the experiment on MDA-MB-435, with MDA-N, in the experiment with NCI-H522, in the experiment with NCI/ADR-RES and in the experiment with OVCAR-5 was > 100 µM (inactive) in each case. In addition, the GI50 with RPMI-8226, in the experiment on RXF 393, in the experiment on SF-268, in the experiment with SK-MEL-2, in the experiment with SNB-19 and with T47D was > 100 µM (inactive) throughout. The GI50 in the experiment on UACC-257 was > 100 µM (inactive).
Consider `COc1ccc(N2C(=O)C3c4[nH]c5ccccc5c4C4CCCCCCCC4C3C2=O)cc1` (stereo not given), for which the GI50 with A498 is > 10 µM (inactive); in the experiment on A549, > 10 µM (inactive); in the experiment with COLO 205 it was > 10 µM (inactive); in the experiment on DU-145 it was > 10 µM (inactive); in the experiment on HCT-15, more than 10 µM; in the experiment with IGROV-1, > 10 µM (inactive). Further, the GI50 with KM12, with MDA-MB-435, in the experiment with MDA-N, in the experiment on NCI-H522, in the experiment with NCI/ADR-RES and with OVCAR-3 was > 10 µM (inactive) throughout. Moreover, the GI50 in the experiment on OVCAR-5, in the experiment on RPMI-8226, in the experiment with RXF 393, in the experiment with SF-268, in the experiment on SK-MEL-2 and with SNB-19 was > 10 µM (inactive) throughout. Further, the GI50 in the experiment on T47D is > 10 µM (inactive).
On to `COc1cc(CNC(=O)CCCCCCCC/C=C/Br)ccc1O`, for which the GI50 with A498 was > 10 µM (inactive); in the experiment on A549, > 10 µM (inactive); with COLO 205, > 10 µM (inactive); in the experiment on DU-145, > 10 µM (inactive); in the experiment with HCT-15 it was more than 10 µM; in the experiment with IGROV-1, > 10 µM (inactive). Moreover, the GI50 in the experiment with KM12, in the experiment with MDA-MB-435, with MDA-N, in the experiment on NCI-H522, in the experiment with NCI/ADR-RES and with OVCAR-3 was > 10 µM (inactive) throughout. For the same molecule, the GI50 in the experiment with RPMI-8226, in the experiment with RXF 393, in the experiment on SF-268, in the experiment with SK-MEL-2, with SNB-19 and in the experiment on T47D was > 10 µM (inactive) each time. Besides, the GI50 in the experiment with UACC-257 was > 10 µM (inactive).
For `O=C1CC(O)c2cscc21` (stereo not given), the GI50 with A498 is > 100 µM (inactive); in the experiment with COLO 205, 34 µM (inactive); in the experiment on DU-145 it was > 100 µM (inactive); in the experiment on HCT-15, more than 100 µM; with IGROV-1 it was > 100 µM (inactive); with KM12, > 100 µM (inactive). In addition, the GI50 is > 100 µM (inactive) with MDA-MB-435; > 100 µM (inactive) in the experiment with MDA-N; 41.3 µM (inactive) in the experiment on NCI-H522; > 100 µM (inactive) in the experiment on NCI/ADR-RES; > 100 µM (inactive) with OVCAR-3; > 100 µM (inactive) in the experiment on OVCAR-5. In addition, the GI50 was 35.3 µM (inactive) in the experiment with RPMI-8226; > 100 µM (inactive) with RXF 393; > 100 µM (inactive) with SF-268; > 100 µM (inactive) in the experiment with SK-MEL-2; > 100 µM (inactive) with T47D; > 100 µM (inactive) in the experiment on UACC-257.
Consider `Cc1cn(C2CC(n3cc(Cn4cc(I)c(=O)[nH]c4=O)nn3)C(CO)O2)c(=O)[nH]c1=O` (stereo not given), for which the GI50 in the experiment with A498 was > 100 µM (inactive); in the experiment with A549, > 100 µM (inactive); in the experiment on COLO 205 it was > 100 µM (inactive); in the experiment on DU-145, > 100 µM (inactive); in the experiment on HCT-15, more than 100 µM; in the experiment on KM12, > 100 µM (inactive). Further, the GI50 in the experiment with MDA-MB-435, with MDA-N, with NCI/ADR-RES, with OVCAR-3, in the experiment on OVCAR-5 and in the experiment with RPMI-8226 was > 100 µM (inactive) in each case. Besides, the GI50 in the experiment with RXF 393, with SF-268, in the experiment on SK-MEL-2, with SNB-19, in the experiment with T47D and in the experiment on UACC-257 was > 100 µM (inactive) each time.
`CN(C)/C=N/S(=O)(=O)c1nn2c(C=O)c(-c3ccc([N+](=O)[O-])cc3)nc2s1`: the GI50 was 27.6 µM (inactive) with A498; 22.8 µM (inactive) in the experiment on A549; 3.18 µM (inactive) with COLO 205; 6.67 µM (inactive) in the experiment with DU-145; 2.94 µM with HCT-15; 3.15 µM (inactive) in the experiment with IGROV-1. In addition, the GI50 is 9.12 µM (inactive) in the experiment with KM12; 6.3 µM (inactive) in the experiment with MDA-MB-435; 2.91 µM (inactive) with MDA-N; 1.27 µM (inactive) in the experiment on NCI-H522; 8.85 µM (inactive) in the experiment with NCI/ADR-RES; 4.11 µM (inactive) with OVCAR-3. Also, the GI50 is 23.4 µM (inactive) in the experiment on OVCAR-5; 2.39 µM (inactive) in the experiment with RPMI-8226; 5.62 µM (inactive) in the experiment with RXF 393; 13.6 µM (inactive) in the experiment with SF-268; 10.4 µM (inactive) with SK-MEL-2; 28.6 µM (inactive) with SNB-19. In addition, the results for the GI50 in the experiment on T47D and in the experiment with UACC-257 were 5.68 µM (inactive) and 9.44 µM (inactive), respectively.
In the case of `C=CC(=O)C#Cc1cnc(OC)nc1OC`, the GI50 in the experiment with A498 is 34.3 µM (inactive); in the experiment with A549, 59 µM (inactive); in the experiment on COLO 205 it was 3.83 µM (inactive); in the experiment on DU-145 it was 37.2 µM (inactive); in the experiment with HCT-15, 10.7 µM; in the experiment on IGROV-1 it was 22.9 µM (inactive). Besides, the GI50 is 13.4 µM (inactive) in the experiment on KM12; 16.6 µM (inactive) with MDA-MB-435; 16.4 µM (inactive) in the experiment on MDA-N; 6.41 µM (inactive) with NCI-H522; 31.3 µM (inactive) with NCI/ADR-RES; 18.2 µM (inactive) in the experiment with OVCAR-3. The GI50 is 16.1 µM (inactive) with OVCAR-5; 1.6 µM (inactive) in the experiment on RPMI-8226; 25.2 µM (inactive) in the experiment with RXF 393; 30.1 µM (inactive) in the experiment on SF-268; 22.1 µM (inactive) in the experiment with SK-MEL-2; 19.1 µM (inactive) in the experiment with SNB-19. Moreover, the GI50 in the experiment with T47D was 21.7 µM (inactive); in the experiment on UACC-257, 6.38 µM (inactive).
In the case of `COC(=O)c1ccc2c(c1)CC1(C2)Cc2ccccc2C1=O` (stereo not given), the GI50 in the experiment on A498 is 37.6 µM (inactive); with A549, 53.1 µM (inactive); in the experiment on COLO 205 it was 18 µM (inactive); with DU-145 it was 36.3 µM (inactive); in the experiment with HCT-15, 36.2 µM; in the experiment with IGROV-1, 33.3 µM (inactive). Further, the GI50 in the experiment on MDA-MB-435 was 24.5 µM (inactive); with MDA-N, 27.7 µM (inactive); in the experiment on NCI-H522 it was 25.3 µM (inactive); in the experiment with NCI/ADR-RES it was 27.6 µM (inactive); in the experiment on OVCAR-3, 29.1 µM (inactive); with OVCAR-5 it was 72.3 µM (inactive). For the same molecule, the GI50 in the experiment with RPMI-8226 is 13.4 µM (inactive); with RXF 393, 33.3 µM (inactive); in the experiment with SF-268, 35 µM (inactive); with SK-MEL-2, 27.4 µM (inactive); with SNB-19, 66.1 µM (inactive); with T47D it was 37.8 µM (inactive). Besides, the GI50 in the experiment on UACC-257 was 15.1 µM (inactive).
For the molecule `CC1=C(C(=O)N[C@@H](CC(C)C)C(=O)O)N2C(=O)[C@@H](NC(=O)[C@@H](N)Cc3ccccc3)[C@H]2SC1`, the GI50 in the experiment with A498 is > 100 µM (inactive); in the experiment with A549, > 100 µM (inactive); in the experiment with COLO 205, > 100 µM (inactive); in the experiment on DU-145, > 100 µM (inactive); in the experiment with HCT-15 it was more than 100 µM; in the experiment on IGROV-1, > 100 µM (inactive). In addition, the GI50 in the experiment with KM12, in the experiment with MDA-MB-435, with MDA-N, in the experiment on NCI-H522, in the experiment with NCI/ADR-RES and in the experiment on OVCAR-3 was > 100 µM (inactive) in each case. Further, the GI50 in the experiment on OVCAR-5, in the experiment with RPMI-8226, in the experiment with RXF 393, with SF-268, in the experiment with SK-MEL-2 and in the experiment with SNB-19 was > 100 µM (inactive) throughout. The GI50 in the experiment with T47D and in the experiment with UACC-257 was > 100 µM (inactive) in each case.
As for `O=C(NCCCl)Nc1cccnc1`, the GI50 was 24.7 µM (inactive) with A498; 31.6 µM (inactive) in the experiment on A549; 24.7 µM (inactive) with COLO 205; 15.4 µM (inactive) in the experiment on DU-145; 22.3 µM in the experiment with HCT-15; 13.6 µM (inactive) in the experiment on IGROV-1. The GI50 is 13.8 µM (inactive) in the experiment on KM12; 24.5 µM (inactive) in the experiment on MDA-MB-435; 12.8 µM (inactive) in the experiment on MDA-N; 25.6 µM (inactive) in the experiment on NCI-H522; 21 µM (inactive) with NCI/ADR-RES; 26.5 µM (inactive) in the experiment with OVCAR-3. The GI50 in the experiment with RPMI-8226 was 2.84 µM (inactive); in the experiment with RXF 393, 0.951 µM (active); with SK-MEL-2 it was 29 µM (inactive); in the experiment with SNB-19 it was 41.4 µM (inactive); with T47D, 35.7 µM (inactive); in the experiment with UACC-257 it was 8 µM (inactive).

The GI50 is the concentration that inhibits growth by half.
